row,melting point [°C],SMILES
1,> 300,"CCCN(Nc1cccc(C(=N)N)c1)C(=O)NNc1ccc(-c2ccccc2S(C)(=O)=O)cc1 [Compound 15, 1-(3-amidinophenyl)-4-(2′-methylsulfonylbiphenyl-4-ylamino)-2-propylsemicarbazide]"
2,215 to 216,"CCCN(Nc1cccc(C(=N)N)c1)C(=O)Nc1ccc(-c2ccccc2S(N)(=O)=O)cc1 [Compound 1, 4′-[3-(3-amidinophenyl)-2-propylcarbazoylamino]biphenyl-2-sulfonamide]"
